From PubChem BioAssay (NCI)
≈ marks a conversion by molar mass, not a printed value.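 Protocol summary: plate cells (96-well), add compound at 5 concentrations, incubate 48 h, interpolate endpoints linearly. GI50 is the concentration that inhibits growth by half. TGI: concentration producing complete growth inhibition.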 Non-standard residues stand in square brackets, D forms with d. Residues, ends and D or L forms follow the SMILES beside them. *: point of attachment. hSer = N[CH](CCO)C(=O)O; Boc = CC(C)(C)OC(=O)*

Legend:
Test in all cases: inhibition of tumour cell growth, NCI panel, 48 h
[1] = system: CCRF-CEM leukemia
[2] = system: HCC-2998 colon
[3] = system: HCT-116 colon
[4] = system: HCT-15 colon
[5] = system: HL-60(TB) leukemia
[6] = system: K-562 leukemia
[7] = system: KM12 colon
[8] = system: LOX IMVI melanoma
[9] = system: M14 melanoma
[10] = system: MCF7 breast
[11] = system: MOLT-4 leukemia
[12] = system: NCI-H460 lung
[13] = system: NCI-H522 lung
[14] = system: OVCAR-3 ovarian
[15] = system: OVCAR-4 ovarian
[16] = system: OVCAR-8 ovarian
[17] = system: SR leukemia
[18] = system: A498 renal
[19] = system: ACHN renal
[20] = system: BT-549 breast
[21] = system: DU-145 prostate
[22] = system: EKVX NSCLC
[23] = system: HOP-62 NSCLC
[24] = system: HOP-92 NSCLC
[25] = system: HS 578T breast
[26] = system: IGROV1 ovarian
[27] = system: MALME-3M melanoma
[28] = system: MDA-MB-231 breast
[29] = system: MDA-MB-435
[30] = system: NCI-H226 lung
[31] = system: NCI-H23 lung
[32] = system: NCI/ADR-RES ovarian
[33] = system: OVCAR-5 ovarian
[34] = system: PC-3 prostate
[35] = system: RPMI-8226 leukemia
[36] = system: SF-295 CNS
[37] = system: SF-539 CNS
[38] = system: SK-MEL-2 melanoma
[39] = system: SK-MEL-28 melanoma
[40] = system: SK-MEL-5 melanoma
[41] = system: SK-OV-3 ovarian
[42] = system: SN12C renal
[43] = system: SNB-75 CNS
[44] = system: TK-10 renal
[45] = system: UACC-62 melanoma
[46] = system: UO-31 renal
[47] = system: CAKI-1 renal
[48] = system: RXF 393 renal
[49] = system: SF-268 CNS
[50] = system: SNB-19 CNS
[51] = system: 786-0 renal
[52] = system: A549 NSCLC
[53] = system: COLO 205 colon
[54] = system: HT29 colon
[55] = system: SW-620 colon
[56] = system: T-47D breast
[57] = system: U251 CNS
[58] = system: UACC-257 melanoma

Compound: COCCC(NC(=O)C(CC(C)C)NC(=O)OC(C)(C)C)C(=O)OC (stereo not drawn) (Boc-Leu-[hSer](Me)-OMe; configuration not given here)
- GI50 [1]: 17.8 µg/mL
- GI50 [2]: 50.1 µg/mL
- GI50 [3]: 91.6 µg/mL
- GI50 [4]: 64.9 µg/mL
- GI50 [5]: 37 µg/mL
- GI50 [6]: 63.1 µg/mL (≈ 175 µM)
- GI50 [7]: 89.9 µg/mL
- GI50 [8]: 65.1 µg/mL
- GI50 [9]: 48.6 µg/mL
- GI50 [10]: 59.7 µg/mL
- GI50 [11]: 26 µg/mL
- TGI [11]: 70.2 µg/mL
- GI50 [12]: 70.1 µg/mL
- GI50 [13]: 31.3 µg/mL
- TGI [13]: 80.1 µg/mL
- GI50 [14]: 78.4 µg/mL
- GI50 [15]: 70.2 µg/mL
- GI50 [16]: 88.3 µg/mL (≈ 245 µM)
- GI50 [17]: 31.2 µg/mL (≈ 86.7 µM)

Compound: CCCCCCCCCCCCCC[n+]1ccc2c(C)c3c(c(C)c2c1)c1cc(O)ccc1n3CC
- GI50 [18]: 327 nM
- TGI [18]: 1270 nM
- GI50 [19]: 1220 nM
- TGI [19]: 3900 nM
- GI50 [20]: 339 nM
- TGI [20]: 1460 nM
- GI50 [21]: 381 nM
- TGI [21]: 1630 nM
- GI50 [22]: 554 nM
- TGI [22]: 2560 nM
- GI50 [2]: 435 nM
- TGI [2]: 1810 nM
- GI50 [4]: 1210 nM
- TGI [4]: 3500 nM
- GI50 [5]: 378 nM
- TGI [5]: 1950 nM
- GI50 [23]: 408 nM
- TGI [23]: 1940 nM
- GI50 [24]: 301 nM
- TGI [24]: 1320 nM
- GI50 [25]: 975 nM
- TGI [25]: 3670 nM
- GI50 [26]: 496 nM
- TGI [26]: 2060 nM
- GI50 [27]: 233 nM
- TGI [27]: 706 nM
- GI50 [28]: 602 nM
- TGI [28]: 2100 nM
- GI50 [29]: 314 nM
- TGI [29]: 1030 nM
- GI50 [30]: 418 nM
- TGI [30]: 1960 nM
- GI50 [31]: 223 nM
- TGI [31]: 1020 nM
- GI50 [12]: 347 nM
- TGI [12]: 1590 nM
- GI50 [13]: 420 nM
- TGI [13]: 2000 nM
- GI50 [32]: 5130 nM
- TGI [32]: 32300 nM
- GI50 [15]: 272 nM
- TGI [15]: 1070 nM
- GI50 [33]: 497 nM
- TGI [33]: 1850 nM
- GI50 [34]: 356 nM
- TGI [34]: 1330 nM
- GI50 [35]: 310 nM
- TGI [35]: 1990 nM
- GI50 [36]: 289 nM
- TGI [36]: 1080 nM
- GI50 [37]: 419 nM
- TGI [37]: 1520 nM
- GI50 [38]: 256 nM
- TGI [38]: 774 nM
- GI50 [39]: 496 nM
- TGI [39]: 1730 nM
- GI50 [40]: 258 nM
- TGI [40]: 724 nM
- GI50 [41]: 280 nM
- TGI [41]: 849 nM
- GI50 [42]: 341 nM
- TGI [42]: 1310 nM
- GI50 [43]: 213 nM
- TGI [43]: 1050 nM
- GI50 [44]: 337 nM
- TGI [44]: 1540 nM
- GI50 [45]: 468 nM
- TGI [45]: 1870 nM
- GI50 [46]: 1390 nM
- TGI [46]: 4570 nM

Compound: Nc1nc(Cl)c(N=Nc2ccc(Cl)cc2)c(NCC2(CO)CC2)n1
- GI50 [18]: 90900 nM
- GI50 [19]: 411 nM
- GI50 [47]: 5060 nM
- GI50 [23]: 28700 nM
- GI50 [24]: 1080 nM
- TGI [24]: 38100 nM
- GI50 [25]: 12600 nM
- GI50 [28]: 11100 nM
- GI50 [13]: 47500 nM
- GI50 [48]: 33500 nM
- GI50 [49]: 40900 nM
- GI50 [41]: 14200 nM
- GI50 [50]: 50000 nM
- GI50 [43]: 10300 nM

Compound: Cc1cccc2c(=O)c3c(sc12)c(NCCNCCO)nc1ccccc13
- GI50 [51]: 1830 nM
- TGI [51]: 3510 nM
- GI50 [18]: 1670 nM
- TGI [18]: 3700 nM
- GI50 [52]: 1470 nM
- TGI [52]: 3190 nM
- GI50 [19]: 1500 nM
- TGI [19]: 2830 nM
- GI50 [20]: 1580 nM
- TGI [20]: 3350 nM
- GI50 [47]: 1250 nM
- TGI [47]: 2560 nM
- GI50 [1]: 1850 nM
- TGI [1]: 3730 nM
- GI50 [53]: 1560 nM
- TGI [53]: 3350 nM
- GI50 [21]: 1680 nM
- TGI [21]: 3120 nM
- GI50 [22]: 1500 nM
- TGI [22]: 2920 nM
- GI50 [2]: 1550 nM
- TGI [2]: 3110 nM
- GI50 [3]: 1350 nM
- TGI [3]: 2720 nM
- GI50 [4]: 1460 nM
- TGI [4]: 2890 nM
- GI50 [5]: 1890 nM
- TGI [5]: 3590 nM
- GI50 [23]: 1280 nM
- TGI [23]: 2870 nM
- GI50 [24]: 1170 nM
- TGI [24]: 3050 nM
- GI50 [25]: 1620 nM
- TGI [25]: 3740 nM
- GI50 [54]: 1400 nM
- TGI [54]: 3130 nM
- GI50 [26]: 1190 nM
- TGI [26]: 2650 nM
- GI50 [7]: 1640 nM
- TGI [7]: 3190 nM
- GI50 [8]: 1500 nM
- TGI [8]: 2920 nM
- GI50 [9]: 1680 nM
- TGI [9]: 3370 nM
- GI50 [27]: 1650 nM
- TGI [27]: 3180 nM
- GI50 [10]: 1240 nM
- TGI [10]: 2720 nM
- GI50 [28]: 1230 nM
- TGI [28]: 2620 nM
- GI50 [29]: 1750 nM
- TGI [29]: 3250 nM
- GI50 [11]: 1530 nM
- TGI [11]: 3210 nM
- GI50 [30]: 1560 nM
- TGI [30]: 3320 nM
- GI50 [31]: 1580 nM
- TGI [31]: 3040 nM
- GI50 [12]: 1190 nM
- TGI [12]: 2640 nM
- GI50 [13]: 1630 nM
- TGI [13]: 3540 nM
- GI50 [14]: 1550 nM
- TGI [14]: 2990 nM
- GI50 [15]: 1750 nM
- TGI [15]: 3480 nM
- GI50 [33]: 1610 nM
- TGI [33]: 3060 nM
- GI50 [34]: 1300 nM
- TGI [34]: 2730 nM
- GI50 [35]: 1810 nM
- TGI [35]: 3880 nM
- GI50 [48]: 1430 nM
- TGI [48]: 2770 nM
- GI50 [49]: 1540 nM
- TGI [49]: 3150 nM
- GI50 [36]: 1730 nM
- TGI [36]: 3210 nM
- GI50 [37]: 1720 nM
- TGI [37]: 3120 nM
- GI50 [38]: 1780 nM
- TGI [38]: 3440 nM
- GI50 [39]: 1790 nM
- TGI [39]: 3310 nM
- GI50 [40]: 1650 nM
- TGI [40]: 3080 nM
- GI50 [42]: 1540 nM
- TGI [42]: 3050 nM
- GI50 [43]: 1150 nM
- TGI [43]: 2430 nM
- GI50 [55]: 1450 nM
- TGI [55]: 3010 nM
- GI50 [56]: 1330 nM
- TGI [56]: 3130 nM
- GI50 [57]: 1560 nM
- TGI [57]: 3090 nM
- GI50 [58]: 1860 nM
- TGI [58]: 3790 nM
- GI50 [45]: 1630 nM
- TGI [45]: 3070 nM
- GI50 [46]: 1090 nM
- TGI [46]: 2340 nM
